Series [1] has as its system human liver cancer cells Bel-7402 transplanted tumor. In kind it is in vivo. Conditions: for Quantity of Animals Whose Tumors Vanished / Inhibition Rate (%) / Tumor Volume (mm^3): PO; for Quantity of Animals Whose Tumors Vanished: 5 animals per group; for Inhibition Rate (%) / Tumor Volume (mm^3): Bel-7402 on nude mice; for tumors vanished (animals/group): at the 11th day; for tumors vanished (animals/group) / toxicity / survivability of mice: intragastrically once a day for 11 days; for toxicity / survivability of mice: nude mice; for recrudescence of tumors: at the end of the experiment (17th day). An excerpt: Name and lot number: YHHU-744, a white powder, lot No.: No. c001471-106; YHHU-755, a white powder, lot No.: No. c001471-102; YHHU-756, a white powder, lot No.: No. c00147-106; YHHU-759, a white powder, lot No.: No. c001471-102; YHHU-776, a white powder, lot No.: No. c001471-107. Sorafenib was used as a positive control.
Formulation: YHHU-744, YHHU-755, YHHU-756, YHHU-759, YHHU-776 and the positive control were each diluted with 0.1% Tween-80 and distilled water to a desired concentration.
BALB/cA nude mice, 6-7 weeks old, ♀, were purchased from Shanghai SLAC Laboratory Animal Co. LTD. Certificate No.: SCXK (Shanghai) 2007-0005. Habitat: SPF level.
Human liver cancer cells Bel-7402 were inoculated on nude mice subcutaneously. After the tumor grew up to 300-450 mm^3, animals were grouped randomly (d0). The tumor volume was measured 2-3 times each week and the weights of mice were recorded. The tumor volume was calculated according to as the following equation. V=½×a×b^2 wherein, a and b are length and width, respectively. […]

The test system of series [2] is human colon cancer cell line SW-620. Description: SRB proliferation assay, SW-620. Conditions: SW-620, colon carcinoma, 72 hours. In kind it is cell-based. The method, then:
(§1) Protocol: the antineoplasmic activities in vitro of the compounds were assayed by a Sulforhodamine B (SRB) protocol. Tumor cells were cultivated at 37 under 5% CO2 in a RPMI 1640 medium or a DMEM medium (Gibco) containing 10% fetal bovine serum. Tumor cells were inoculated on a 96-well plate with a concentration of 0.4-1.0×10^4 cells per well according to the cell types. 24 hours later, the target compounds diluted 10 times were added, each compound having at least 5 concentrations. After treated by the compounds for 72 hours, the culture media were discarded, and the cells were fixed by 10% cold trichloroacetic acid, and then stained by Sulforhodamine B (SRB) solution. The uncombined SRB was washed off, and the SRB combined with protein was dissolved with Tris. OD values were recorded at 515 nm on an ELISA Reader, and the cell growth inhibition rate was calculated according to following equation: Inhibition rate=(ODcontrol−ODexperimental)/ODcontrol×100%
(§2) IC50 (50% inhibitory concentration) was calculated by using Logit method based on the inhibition rates at various concentration, and the results are shown in tables 1 and 2. […]

For series [3], the system named is human breast cancer cell line MDA-MB-231. The series can be described thus: SRB proliferation assay, MDA-MB-231. The conditions noted are these: MDA-MB-231, breast carcinoma, 72 hours. The series is classed as cell-based. The method, then: as §1, §2
For orientation: Sulforhodamine B stains cellular protein and so reports cell mass.

For series [4], the system named is human hepatocarcinoma cell line SIMM-7721. Description: SRB proliferation assay, SIMM-7721. In kind it is cell-based. Conditions: SIMM-7721, liver cancer, 72 hours. The method, then:
as §1, §2

For series [5], the system named is human hepatoma cell line Bel-7402. The series can be described thus: SRB proliferation assay, Bel-7402. The series is classed as cell-based. The method, then:
as §1
IC50 (50% inhibitory concentration) was calculated by using Logit method based on the inhibition rates at various concentration, and the results are shown in tables 1 and 2.
The following cell lines were used: human hepatocarcinoma cell line […]; ovarian cancer cell line SK-OV-3; human breast cancer cell line MDA-MB-231; human renal carcinoma cell line A498; colon adenocarcinoma cell line HT-29; non-small cell lung cancer cell line NCI-H460; lung adenocarcinoma cell line A549; human colon cancer cell line SW-620; human hepatoma cell line Bel-7402; human breast carcinoma cell line SK-BR-3; and human umbilical vein endothelial cells (HUVEC).

Series [6] has as its system human renal carcinoma cell line A498. The series can be described thus: SRB proliferation assay, A498. The conditions noted are these: 72 hours. In kind it is cell-based. The method, then: as §1, §2
Series [7] relates to colon adenocarcinoma cell line HT-29. Description: SRB proliferation assay, HT-29. The series is classed as cell-based. The conditions noted are these: Homo sapiens, HT-29, colon carcinoma, 72 hours. The method, then:
as §1, §2

The subject of series [8] is human umbilical vein endothelial cells (HUVEC). Description: SRB proliferation assay, HUVEC. In kind it is cell-based. The conditions noted are these: human umbilical vein endothelial cells (normal cells), 72 hours. The method, then: as §1, §2
Series [9] deals with non-small cell lung cancer cell line NCI-H460. Description: SRB proliferation assay, NCI-H460. In kind it is cell-based. Conditions: Homo sapiens, 72 hours. The method, then: as §1, §2
In series [10] the test system is human breast carcinoma cell line SK-BR-3. Description: SRB proliferation assay, SK-BR-3. In kind it is cell-based. The conditions noted are these: SK-BR-3, breast carcinoma, 72 hours. The method, then: as §1, §2
The next series concerns liver cancer of animals. The series can be described thus: Curative effect against liver cancer of animals in vivo.
Series [11] deals with ovarian cancer cell line SK-OV-3. The series can be described thus: SRB proliferation assay, SK-OV-3. The series is classed as cell-based. Conditions: Homo sapiens, 72 hours. The method, then: as §1, §2
Series [12] relates to human liver cancer cells SMMC-7721 transplanted tumor. Description: SMMC-7721 transplanted tumor on nude mice. The series is classed as in vivo. Conditions: intragastrically once a day for 10 days; subcutaneous tumor on nude mice. The method, then:
Experimental procedure: BALB/cA nude mice, 6-7 weeks old, ♀, were purchased from Shanghai SLAC Laboratory Animal Co. LTD. Certificate No.: SCXK (Shanghai) 2007-0005. Habitat: SPF level. The compounds were diluted with 0.5% CMC containing 0.1% Tween-80 to a desired concentration. Human liver cancer cells SMMC-7721 were inoculated on nude mice subcutaneously. After the tumor grew up to 100-200 mm^3, animals were grouped randomly (d0). Mice were consecutively administered with compounds intragastrically once a day for 10 days. The tumor volume was measured 2-3 times each week and the weights of mice were recorded. The tumor volume (V) was calculated according to the following equation: V=½×a×b^2, wherein, a and b are length and width, respectively.

[13] abbreviates: Homo sapiens, Bel-7402, 72 h, BEL-7402 cultivated in vitro, given as bounds, read-out: The Inhibition Activities for Human Liver Cancer Cells BEL-7402 (IC50).

These results are taken from patent US9212146B2, “Substituted pyridazinones for the treatment of tumors” (SHANGHAI INSTITUTE OF MATERIA MEDICA, CHINESE ACADEMY OF …, priority 2008, dated 2015).

Where two headings read alike, the source gives them in different places. Where only a bound is given, the exact number is not on record here.

As for `CNC(=O)c1cc(Oc2ccc(NC(=O)Nc3ccc(Cl)c(C(F)(F)F)c3)cc2)ccn1` [Sorafenib, reference compound], in [1] (60 mg/kg, QDx16), the “Quantity of Animals Whose Tumors Vanished” value (“Quantity” for short) is given as 0, the “Inhibition Rate (%)” value was determined as 50% and the “Tumor Volume (mm^3)” value turned out to be 279.8 mm^3.

By IC50 is commonly meant the point on the concentration scale where inhibition reaches its midpoint. Turning to `O=c1ccc(-c2ccc(N3CCCC3)c(C(F)(F)F)c2)n[nH]1` [YHHU-646], the IC50 was 5800 nM in series [2]; greater than 20000 nM in series [3]; less than 100 nM in series [4]; less than 10 nM in series [5] (setting [13]); 0.7 nM in [5] (Homo sapiens, Bel-7402, 72 h, Bel-7402, liver cancer, Table 1, read-out: IC50); 4120 nM in series [6]. Further, the IC50 in series [7] was found to be 6300 nM; in series [8], 30 nM; in [9], 24100 nM; in series [10], 7500 nM; in series [11], 3 nM. The “curative effect against liver cancer of animals in vivo” value in the series with liver cancer of animals is listed as “significant curative effect”.

As for `CCNc1ccc(-c2ccc(=O)[nH]n2)cc1C(F)(F)F` [YHHU-744], in series [1] (100 mg/kg, QDx11), the “Quantity” value turned out to be 4, the “Inhibition Rate (%)” value is reported as 98% and the “Tumor Volume (mm^3)” value turned out to be 343.7 mm^3. In [1], the “tumors vanished (animals/group)” value is recorded as 4/5 and the “toxicity / survivability of mice” value was “no significant toxicity was observed”. Besides, in [5] (setting [13]), the IC50 was less than 10 nM.

On to `O=c1ccc(-c2ccc(N3CCCCC3)c(C(F)(F)F)c2)n[nH]1` [YHHU-755], for which, in series [1] (100 mg/kg, QDx11), the “Quantity” value is recorded as 5, the “Inhibition Rate (%)” value worked out at 100% and the “Tumor Volume (mm^3)” value is 350.4 mm^3. For the same compound, in [1], the “tumors vanished (animals/group)” value was 5/5, the recrudescence of tumors entry is “no recrudescence was observed” and the “toxicity / survivability of mice” value is “no significant toxicity was observed”. Moreover, the IC50 in series [5] (setting [13]) is less than 10 nM.

On to `O=c1ccc(-c2ccc(N3CCOCC3)c(C(F)(F)F)c2)n[nH]1` [YHHU-759], for which, in series [1] (100 mg/kg, QDx11), the “Quantity” value is on record as 5, the “Inhibition Rate (%)” value is on record as 100% and the “Tumor Volume (mm^3)” value turned out to be 367.9 mm^3. Also, in series [1], the “tumors vanished (animals/group)” value was 5/5, the recrudescence of tumors entry is reported as “no recrudescence was observed” and the “toxicity / survivability of mice” value is “no significant toxicity was observed”. For the same compound, the “growth of SMMC-7721 transplanted tumor” value in [12] is reported as “significantly inhibited the growth”. In addition, in series [5] (setting [13]), the IC50 is less than 10 nM.

Turning to `COc1ccc(-c2ccc(=O)[nH]n2)cc1C(F)(F)F` [YHHU-762], in series [5] (BEL-7402 cultivated in vitro, 72 hours, given as bounds, read-out: The Inhibition Activities for Human Liver Cancer Cells BEL-7402 (IC50)), the IC50 was less than 10 nM.

Regarding `O=c1ccc(-c2ccc(N3CCCCC3CO)c(C(F)(F)F)c2)n[nH]1` (stereo not shown) [YHHU-763], in series [5] (setting [13]), the IC50 was less than 100 nM.

`O=C(O)C1CCCN(c2ccc(-c3ccc(=O)[nH]n3)cc2C(F)(F)F)C1` (stereo not shown) [YHHU-765]: in series [5] (setting [13]), the IC50 is less than 100 nM.

Consider `O=c1ccc(-c2ccc(N3CCC(O)C3)c(C(F)(F)F)c2)n[nH]1` (stereo not shown) [YHHU-766], for which the IC50 in [5] (setting [13]) is less than 100 nM.

On to `CCOC(=O)C1CCCN1c1ccc(-c2ccc(=O)[nH]n2)cc1C(F)(F)F` (stereo not shown) [YHHU-768], for which the IC50 in [5] (setting [13]) was less than 100 nM.

With `CCOC(=O)CCNc1ccc(-c2ccc(=O)[nH]n2)cc1C(F)(F)F` [YHHU-769], the IC50 in series [5] (setting [13]) was less than 1000 nM.

Turning to `O=c1ccc(-c2ccc(OCCN3CCCC3)c(C(F)(F)F)c2)n[nH]1` [YHHU-770], the IC50 in series [5] (setting [13]) is less than 100 nM.

For `O=c1ccc(-c2ccc(OCCN3CC3)c(C(F)(F)F)c2)n[nH]1` [YHHU-771], the half-maximal inhibitory concentration (IC50) in [5] (Homo sapiens, BEL-7402 cultivated in vitro, 72 hours, given as bounds, read-out: The Inhibition Activities for Human Liver Cancer Cells BEL-7402 (IC50)) is less than 100 nM.

Turning to `CC(C)CCOc1ccc(-c2ccc(=O)[nH]n2)cc1C(F)(F)F` [YHHU-772], the IC50 in [5] (setting [13]) is less than 100 nM.

Turning to `CCC(C)(C)Oc1ccc(-c2ccc(=O)[nH]n2)cc1C(F)(F)F` [YHHU-773], the IC50 in series [5] (setting [13]) was less than 100 nM.

For the compound `COC(CNc1ccc(-c2ccc(=O)[nH]n2)cc1C(F)(F)F)OC` [YHHU-774], the IC50 in series [5] (setting [13]) is less than 100 nM.

`O=c1ccc(-c2ccc(OCCN3CCOCC3)c(C(F)(F)F)c2)n[nH]1` [YHHU-775]: the IC50 in series [5] (setting [13]) is less than 100 nM.

Take `O=c1ccc(-c2ccc(N3CCC(O)CC3)c(C(F)(F)F)c2)n[nH]1` [YHHU-776]: in series [1] (100 mg/kg, QDx11), the “Quantity” value is on record as 5, the “Inhibition Rate (%)” value was found to be 100% and the “Tumor Volume (mm^3)” value was found to be 338.2 mm^3. Besides, in series [1], the “tumors vanished (animals/group)” value was 5/5, the recrudescence of tumors result was “no recrudescence was observed” and the “toxicity / survivability of mice” value is reported as “no significant toxicity was observed”. In addition, in series [5] (setting [13]), the IC50 is less than 10 nM.
